Columns and labels:
Nur77 [1] = assay: Western blot of Nur77 expression; type: cell-based, human; conditions: HGC-27 cells, concentration gradient
Protocol: (§1) Equal amounts of the lysates were electrophoresed on 10% SDS-PAGE gel and transferred onto PVDF membranes. After blocked with 5% nonfat milk in TBST (50 mM Tris-HCl (pH 7.4), 150 mM NaCl and 0.1% Tween 20) for 1 h, the membranes were incubated with various primary antibodies overnight and secondary antibodies for 3 h, finally detected using an ECL system. The blots were captured with ChemiDoc XRS+System (Bio-Rad, Hercules, CA, USA).

HGC-27 cells [2] = assay: Flow cytometry cell cycle assay; type: cell-based, human; set-up: dose or concentration left out as unconfirmed; conditions: 8 h of treatment
Protocol: Flow cytometry analysis was applied for cell cycle detection. Firstly, HGC-27 cell was adjusted to 1 × 10^6/mL, inoculated into a six-well plate and placed in an incubator at 37 °C containing 5% CO2 saturated humidity overnight. After the cells were fully attached to the plate, […] 9u and 9h were administrated to the cells for 8 h. After cells were collected and fixed with 70% ethanol, DAPI was applied to stain the cells at the final concentration of 1 μg/mL; subsequently, on-board testing by flow cytometry (Cytoflex S (Beckman Coulter, Brea, CA, USA)) was conducted.

Nur77 [3] = target: T1, Nur77 (Homo sapiens, UniProt P22736); assay: Nur77 localization by nuclear-cytosol fractionation and immunofluorescence; type: cell-based; conditions: HGC-27 cells, 3 h, 10 µM for immunofluorescence
T1 construct: endogenous in cells; host or cells: HGC-27
Protocol: Cells in the logarithmic phase of growth were seeded in 6-cm dishes; after, apposition cells were treated with compound 9h for 3 h. The medium was discarded and washed twice with pre-chilled PBS, then the cells were scraped off with a cytoscraper and collected into 1.5 mL centrifuge tubes and centrifuged at 1500 rpm for 3 min. Next, 80 μL of Buffer B (containing 100× protease inhibitor) were added for 20 min in an ice bath, followed by 20 μL of Buffer B containing 1% TritonX-100. The mixture was vortexed for 10 s, centrifuged at 10,000× g for 15 min at 4 °C, the supernatant collected as cytoplasmic proteins and the precipitate as the nuclear fraction. Then, 100 μL of Buffer C containing 0.4% TritonX-100 were added and centrifuged for 15 min at 4 °C, and 100 uL of Buffer C containing 0.4% TritonX-100 were added and vortexed for 30 min at 4 °C, centrifuged at 15,000× g for 15 min at 4 °C, and the supernatant was the nucleus protein.
The cells were inoculated into the culture dish with preplaced treated coverslips, and the coverslips were removed when the cells were close to growing into a monolayer. Then, they were washed twice with PBS and 4% paraformaldehyde was used to fix the cells for 30 min. The cells were permeabilized with 1‰ TritonX-100 for 10 min. […] One drop of blocker containing DAPI dye was added and the slice sealed and this was examined by fluorescence microscopy.

MDA-MB231 cells = assay: MTT cytotoxicity, MDA-MB231; type: cell-based; conditions: read-out: Cancer Cells IC50, MDA-MB231
Protocol: (§2) All of the cell lines were obtained from the American Type Culture Collection (ATCC, Manassas, VA, USA) and grown in DMEM or RPMI culture medium containing 10% fetal bovine serum (v/v) in 5% CO2 at 37 °C. Confluent cells in good state were cultured in 96-well plates (5–10 × 10^4 cells/mL). After cells were attached to the plate, compounds with various concentrations were applied at 37 °C for 72 h. […] The supernatant was removed, and the cells were dissolved in 100 μL dimethyl sulfoxide and shaken for 5 min.

HGC-27 cells [4] = assay: Colony formation assay; type: cell-based, human; conditions: treatment for two weeks, 5 μM and 10 μM, dose-dependent
Protocol: HGC-27 cells were cultured in a six-well plate (500 cells/well) and treated with 9u and 9h in 10% serum medium for two weeks, then fixed with methanol at room temperature and stained with 0.1% crystal violet, and images were scanned with a scanner.

MCF-7 cells = assay: MTT cytotoxicity, MCF-7; type: cell-based, human; conditions: 72 h, mean values
Protocol: (§3) All of the cell lines were obtained from the American Type Culture Collection (ATCC, Manassas, VA, USA) and grown in DMEM or RPMI culture medium containing 10% fetal bovine serum (v/v) in 5% CO2 at 37 °C.
(§4) Confluent cells in good state were cultured in 96-well plates (5–10 × 10^4 cells/mL). After cells were attached to the plate, compounds with various concentrations were applied at 37 °C for 72 h. Then, the cells were incubated with 10 μL of 5 mg/mL MTT reagent at 37 °C for 4 h. The supernatant was removed, and the cells were dissolved in 100 μL dimethyl sulfoxide and shaken for 5 min. Finally, the light absorption (OD) of the dissolved cells was measured at […].

HepG2 cells = assay: MTT cytotoxicity, HepG2; type: cell-based; conditions: read-out: Cancer Cells IC50, HepG2
Protocol: as §2

cleaved PARP = assay: Western blot of cleaved PARP; type: cell-based, human; conditions: HGC-27 cells, different times and concentrations, 24 h
Protocol: as §1

HGC-27 cells [5] = assay: MTT cytotoxicity, HGC-27; type: cell-based, human; conditions: 72 h, mean values
Protocol: as §3, §4

A549 cells = assay: MTT cytotoxicity, A549; type: cell-based; conditions: read-out: Cancer Cells IC50, A549
Protocol: as §2

A875 cells = assay: MTT cytotoxicity, A875; type: cell-based; conditions: read-out: Cancer Cells IC50, A875
Protocol: as §2

H460 cells = assay: MTT cytotoxicity, H460; type: cell-based; conditions: read-out: Cancer Cells IC50, H460
Protocol: as §2

HeLa cells = assay: MTT cytotoxicity, HeLa; type: cell-based, human; conditions: 72 h, mean values
Protocol: as §3, §4

MRC-5 cells = assay: MTT cytotoxicity, MRC-5 normal cells; type: cell-based
Protocol: as §2

LO2 cells = assay: MTT cytotoxicity, LO2 normal cells; type: cell-based
Protocol: as §2

T1 sequence (P22736 whole entry): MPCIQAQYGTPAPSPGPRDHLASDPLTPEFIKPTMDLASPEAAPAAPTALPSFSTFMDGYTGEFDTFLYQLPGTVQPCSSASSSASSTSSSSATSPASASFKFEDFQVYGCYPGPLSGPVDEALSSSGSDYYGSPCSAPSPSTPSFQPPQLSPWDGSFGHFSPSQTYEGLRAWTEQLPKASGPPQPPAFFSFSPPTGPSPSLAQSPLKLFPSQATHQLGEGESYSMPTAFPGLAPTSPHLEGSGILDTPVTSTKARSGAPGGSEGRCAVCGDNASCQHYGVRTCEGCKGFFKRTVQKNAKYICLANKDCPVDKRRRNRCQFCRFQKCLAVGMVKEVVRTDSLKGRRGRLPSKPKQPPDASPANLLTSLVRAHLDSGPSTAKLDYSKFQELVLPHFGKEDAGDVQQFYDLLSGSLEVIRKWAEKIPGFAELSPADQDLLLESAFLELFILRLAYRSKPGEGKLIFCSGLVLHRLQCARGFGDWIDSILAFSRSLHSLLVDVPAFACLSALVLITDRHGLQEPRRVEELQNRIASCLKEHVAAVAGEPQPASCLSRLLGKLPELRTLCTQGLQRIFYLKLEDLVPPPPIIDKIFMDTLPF

## 4-(2-Chlorophenyl)-1-(2-(6-methoxynaphthalen-2-yl)-6-methylnicotinoyl)semicarbazide [Compound 9h]
Nur77 [1]
  Nur77 expression: induced Nur77 expression
HGC-27 cells [2]
  Effect on cell cycle: induced cell cycle blockage in G2-M phase
Nur77 [3]
  Nur77 nuclear export: significantly induced Nur77 nuclear export
MDA-MB231 cells
  IC50: 4.3 ± 0.33 µM
HGC-27 cells [4]
  Colony formation of HGC-27 cells: completely inhibited colony formation
MCF-7 cells
  IC50: 3.3 ± 0.21 µM
HepG2 cells
  IC50: 5.1 ± 0.01 µM
Cleaved PARP
  PARP cleavage: induce the PARP cleavage in a dose-dependent and time-dependent manner
HGC-27 cells [5]
  IC50: 1.4 ± 0.11 µM
A549 cells
  IC50: 7.3 ± 0.21 µM
A875 cells
  IC50: > 50 µM
H460 cells
  IC50: 9.2 ± 0.24 µM
HeLa cells
  IC50: 4.12 ± 0.08 µM
MRC-5 cells
  IC50: > 50 µM
LO2 cells
  IC50: > 50 µM

Source: PMC8911927, “Synthesis and Biological Evaluation of 1-(2-(6-Methoxynaphthalen-2-yl)-6-methylnicotinoyl)-4-Substituted Semicarbazides/Thiosemicarbazides as Anti-Tumor Nur77 Modulators” (Molecules, 2022)
